{
  "source": "PubChem BioAssay AID588780",
  "about": "(Sanford-Burnham Center for Chemical Genomics, 2011)",
  "note": "pIC50: −log10 of the molar value. Calls of active or inactive are those of the source.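 The calls were made as follows: active = compounds whose fitted half-maximal concentration in the cell-protection dose series is at or below a set limit; inactive = the rest.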",
  "data": [
    {"system": "H9c2 cardiomyocytes, 2-deoxyglucose stress, ATP luminescence, 2 h", "experiment": "H9c2 cell survival under 2-deoxyglucose stress – uHTS hits, dose response (AID 588780)", "values": [
      {"smiles": "COc1ccc(CNC(=O)c2ccc(Cn3nc(C)c([N+](=O)[O-])c3C)o2)cc1", "IC50": "> 79 µM (inactive)"},
      {"smiles": "COc1ccccc1CN(Cc1nc2ccccc2c(=O)[nH]1)S(=O)(=O)c1ccc2ccccc2c1", "IC50": "> 79 µM (inactive)"},
      {"smiles": "CC(=O)Nc1ccc(NS(=O)(=O)c2cc(-c3n[nH]c(=O)c4ccccc34)ccc2C)cc1", "IC50": "> 79 µM (inactive)"},
      {"smiles": "O=C(COc1cccc(F)c1)Nc1nc(-c2ccccn2)cs1", "IC50": "30.9 µM (inactive)"},
      {"smiles": "COc1cccc(C(=O)Nc2cc(C)c3c(=O)oc4ccccc4c3n2)c1", "IC50": "> 79 µM (inactive)"},
      {"smiles": "Cc1cc(Cl)ccc1OCCCC(=O)NNC(=O)c1ccccc1O", "IC50": "> 79 µM (inactive)"},
      {"smiles": "CCc1nnc(NC(=O)CSc2nnc(CNc3ccc(OC)cc3)n2C)s1", "IC50": "> 79 µM (inactive)"},
      {"smiles": "CC(=O)Nc1cc(-c2ccccc2)cn2c(-c3cccc(C(C)=O)c3)cnc12", "pIC50": 4.75},
      {"smiles": "Cc1cc(C)cc(NC(=O)CSc2ccc(-c3ccccn3)nn2)c1", "IC50": "> 79 µM (inactive)"},
      {"smiles": "Cc1cc2ccccc2c(=O)[nH]1", "pIC50": 5.14},
      {"smiles": "Cc1ccc(OCC(=O)NCc2n[nH]c(=O)c3ccccc23)cc1", "IC50": "> 79 µM (inactive)"},
      {"smiles": "O=c1[nH]c2c(c3c1CCCC3)CCCC2", "IC50": "> 79 µM (inactive)"},
      {"smiles": "COc1ccc(CCn2c(Br)nc3c2c(=O)[nH]c(=O)n3C)cc1", "IC50": "> 79 µM (inactive)"},
      {"smiles": "COc1ccc(-c2ccc3[nH]c4c(c3c2)CCN2C[C@H]3[C@H](C)ON(C)[C@H]3C[C@@H]42)cc1", "IC50": "46.8 µM (inactive)"},
      {"smiles": "CCOc1cc(/C=C/c2ccc3cccc([N+](=O)[O-])c3n2)ccc1OCC(=O)N(C)C", "pIC50": 4.90},
      {"smiles": "COc1ccccc1-c1cc2nc(-c3ccccc3)cc(N3CCN(C(=O)c4ccoc4)CC3)n2n1", "IC50": "> 79 µM (inactive)"},
      {"smiles": "CC(=O)Nc1cccc(NC(=O)c2cc(-c3cccnc3)nc3ccc(Br)cc23)c1", "IC50": "> 79 µM (inactive)"},
      {"smiles": "COc1cc(/C=C/C(=O)CC(=O)/C=C/c2ccc(O)c(OC)c2)ccc1O", "IC50": "> 79 µM (inactive)"},
      {"smiles": "CCCN(CCC)S(=O)(=O)c1ccc(C(=O)Nc2nnc(-c3cc(OC)cc(OC)c3)o2)cc1", "pIC50": 5.04},
      {"smiles": "CC(=O)Nc1ccc(-c2csc(NC(=O)Nc3ccccc3)n2)cc1", "IC50": "36.3 µM (inactive)"},
      {"smiles": "COc1cc(NC(=O)c2c(OC)cccc2OC)ccc1NC(=O)c1cc2ccccc2o1", "pIC50": 4.90},
      {"smiles": "CNC(=O)/C(C#N)=C/c1c(N(Cc2ccccc2)Cc2ccccc2)nc2ccccn2c1=O", "pIC50": 4.80},
      {"smiles": "Cc1cc(OCC(=O)N2CCOCC2)cc2oc(=O)c3ccccc3c12", "pIC50": 4.83},
      {"smiles": "O=C(OCC(=O)N1CCCCCC1)c1n[nH]c(=O)c2ccccc12", "IC50": "> 79 µM (inactive)"},
      {"smiles": "Cc1nc(N2CCN(c3ccccn3)CC2)c2c(C)c(C(=O)Nc3ccc(F)cc3)sc2n1", "IC50": "> 79 µM (inactive)"},
      {"smiles": "CCn1nc(C(=O)NNC(=O)c2cc(Cl)ccc2OC)c2ccccc2c1=O", "IC50": "74 µM (inactive)"},
      {"smiles": "O=C(CSc1nc2ccccc2c(=O)[nH]1)c1ccc(O)cc1O", "IC50": "33.1 µM (inactive)"},
      {"smiles": "O=C(CCc1nc2ccccc2c(=O)[nH]1)OCCOc1ccc(Cl)cc1", "IC50": "31.3 µM (inactive)"},
      {"smiles": "Oc1c(Br)cc(Br)cc1C=Nc1cccc2ncccc12", "pIC50": 4.56},
      {"smiles": "COc1cccc(NC(=O)NC2(C(F)(F)F)Oc3ccccc3O2)c1", "pIC50": 4.77},
      {"smiles": "COc1ccnc(Oc2ccccc2)c1C(=O)N/C=N/OCc1ccc(F)cc1Cl", "IC50": "> 79 µM (inactive)"},
      {"smiles": "O=C(NCC(=O)N(Cc1cccs1)C(C(=O)NC1CCCCC1)c1ccco1)c1cccs1", "note": "(configuration not stated)", "pIC50": 4.82},
      {"smiles": "COC(=O)c1cc(OC)c(OC)cc1NC(=O)c1ccc(OC)c(OC)c1", "IC50": "> 79 µM (inactive)"},
      {"smiles": "COc1ccc(C(=O)NNC(=O)CCc2nc3ccccc3c(=O)[nH]2)cc1", "IC50": "> 79 µM (inactive)"},
      {"smiles": "CCOC(=O)c1nc(Nc2ccc(C(=O)OC)cc2)c2ccccc2n1", "IC50": "> 79 µM (inactive)"},
      {"smiles": "CCc1nc2ccc(C(=O)NCc3cccs3)cn2c1N(C)Cc1nccs1", "pIC50": 4.65},
      {"smiles": "O=C(Nc1ccccc1)c1nc[nH]c1C(=O)NCCCCCCNC(=O)c1[nH]cnc1C(=O)Nc1ccccc1", "pIC50": 4.98},
      {"smiles": "COC(=O)c1[nH]c2ccccc2c1NC(=O)CNC1CCCCC1", "IC50": "> 79 µM (inactive)"},
      {"smiles": "Cc1cc(C)c2c(N)c(C(=O)N/N=C/c3cccnc3)sc2n1", "pIC50": 4.72},
      {"smiles": "O=C1c2ccccc2NC(c2ccc([N+](=O)[O-])cc2)N1O", "note": "(configuration not stated)", "IC50": "> 79 µM (inactive)"},
      {"smiles": "Cc1cccc(C(=O)NC(C(=O)Nc2nc(-c3ccccn3)cs2)C(C)C)c1", "note": "(configuration not stated)", "pIC50": 4.90},
      {"smiles": "Cn1nc(C(=O)Nc2nc(-c3ccccn3)cs2)c2ccccc2c1=O", "IC50": "39.6 µM (inactive)"},
      {"smiles": "O=S(=O)(c1cccc(F)c1)N1CCN(c2nc(-c3cccnc3)nc3ccccc23)CC1", "pIC50": 4.79},
      {"smiles": "CCOC(=O)c1ccc(-c2ccc(/C=C(\\C#N)C(=O)NCC3CCCO3)o2)cc1", "note": "(configuration not stated)", "IC50": "> 79 µM (inactive)"},
      {"smiles": "COc1ccc(-c2cc(-c3ccc(O)cc3)nc(N)c2C#N)cc1OC", "IC50": "> 79 µM (inactive)"},
      {"smiles": "COc1cc2c(C#CCCCO)c(-c3ccsc3)oc(=O)c2cc1OC", "IC50": "> 79 µM (inactive)"},
      {"smiles": "CCN(CC(=O)Nc1cc(Cl)ccc1C)C(=O)C1CCN(c2ncnc3sc(C)c(C)c23)CC1", "IC50": "> 79 µM (inactive)"}
    ]}
  ]
}
